Source: PMC8623418, “Novel Multitarget Hydroxamic Acids with a Natural Origin CAP Group against Alzheimer’s Disease: Synthesis, Docking and Biological Evaluation” (Pharmaceutics, 2021)

How the values were obtained:
[1] = Stability in rat blood plasma, LC–MS/MS; format: in vitro ADME; conditions: 1000 ng/mL spike
Method: EDTA-stabilized rat blood plasma was used in the study. The spikes were prepared by adding 100 µL of the solution of a compound to 900 µL of plasma, followed by continuous shaking. A 100 µL aliquot of a sample was taken and mixed with 900 µL of MeOH, shaken for 15 min, and centrifuged. Then, 100 µLc of the supernatant was transferred to a vial insert and analyzed.
HPLC–MS/MS analyses were performed using a Shimadzu LC-20AD Prominence chromatograph equipped with a SIL-20AC cooled autosampler and a gradient pump. A column filled with a reversed-phase ProntoSil 120-AQ C18 sorbent (Econova, Novosibirsk) was used. Water with the addition of 0.1% HCOOH was used as mobile phase A, and methanol containing 0.1% HCOOH was used as mobile phase B. The gradient was as follows: 0 min—5% B; 1 min—5% B; 2 min—95% B; 5 min—100% B; the flow rate was 300 μL/min; the injection volume was 10 μL. The column was then equilibrated for the following analysis. […]
To study the stability of the compounds, their solutions (spikes) in rat blood plasma were prepared with a concentration of 1000 ng/mL. […] Aliquots of the spike with a volume of 100 μL were taken after 5, 15, 30, 60, 120, 180, and 270 min, after which the sample was mixed with MeOH, shaken for 10 min, then centrifuged and analyzed with LC–MS/MS.

5xFAD transgenic mice [2] = assay: Open field test in 5xFAD mice; format: in vivo; conditions: 15 mg/kg i.p. for 20 days, 11-month-old male 5xFAD mice
Method: All animal procedures were approved by the Animal Care and Use Committee of IPAC RAS. For in vivo studies, 11-month-old male mice of the 5xFAD line (Tg(APPSwFlLon,PSEN1*M146L*L286V) 6799Vas/J) were used. The animals were housed in cages with free access to water and food in a room with a 12 h/12 h light–dark cycle, at a temperature of 23 ± 1 °C and humidity of 50 ± 5%. Before the series of experiments, animals were randomly divided into four groups (n = 8 per group): (1) wild-type group (C57BL6/j mouse line); (2) 5xFAD group; (3) 5xFAD + 15 group; and (4) 5xFAD + 25 group.
Both compounds 15 and 25 were dissolved in saline solution and DMSO (10%) immediately before use and intraperitoneally administered to animals for 20 days at a dose of 15 mg/kg body weight for experiments. In the control group, the vehicle solution (saline and DMSO (10%), intraperitoneal) was administered with the same time schedule.
The open field box consisted of a square, non-transparent, grey box (40 cm × 40 cm × 40 cm). Illumination intensity was kept at 50 lux. During a session, a single animal was allowed to explore the empty open field, and its baseline level of activity was measured. The session lasted for 10 min (Figure 5A). […] The number of standing events was manually counted in a blind manner by one observer. […]

5xFAD transgenic mice [3] = assay: Ex vivo Congo red staining of Aβ plaques in brain sections; conditions: compared to untreated 5XFAD mice
Method: For histological examination, the mouse brain was fixed in 10% neutral buffered formalin (Leica Biosystems Inc., Buffalo Grove, IL, USA) at +4 °C for 24 h. Then, the material was dehydrated, defatted, and clarified in a Leica ASP200 apparatus (Leica Biosystems Inc., Buffalo Grove, IL, USA) using ethanol-xylene wiring according to the following scheme: deionized water—2 h; 70% ethanol—12 h; ethanol 96% sequentially—1 h, 30 min, 2 portions 15 min each; a mixture of ethanol and xylene 1:1—20 min; xylene—2 portions for 30 min each; paraffin—3 times for 1 h each. Then, the material was embedded in paraffin blocks using a Leica EG1160 apparatus (Leica Biosystems Inc., Buffalo Grove, IL, USA). […] The results were evaluated using a ZEISS LSM 880 laser scanning microscope with an Airyscan module (Carl Zeiss Vision, Jena, Germany). […] A 10 × 10 grid was imposed on images containing only brain tissue; then, in 10 grid cells located obliquely from top left to right bottom corner, we selected plaques using the ‘magic wand’ tool, so the average plaque area and luminosity were calculated. Three images were analyzed for each animal in each group; then, the average of three animals was calculated. […]

SMILES	half-life at 1000 ng/mL ([1]; rat, EDTA-stabilized rat blood plasma, estimated from the graph) [h]	Open field: standing events, distance, movement rate, time in central and peripheral areas (5xFAD transgenic mice [2])	Reduction in plaque load (Congo red-positive amyloid) (5xFAD transgenic mice [3])	Time stable in rat blood plasma [1] [h]
O=C(CCCCCCC(=O)NC1C2CC3CC(C2)CC1C3)NO (stereo not drawn) [compound 15, N^1-(Adamant-2-yl)-N^8-Hydroxyoctanediamide]	1 to 1.17	did not show any alteration	45%	–
O=C(/C=C/c1ccc(C(=O)NO)cc1)NC1C2CC3CC(C2)CC1C3 (stereo not drawn) [compound 25, 4-((E)-3-((-Adamantan-2-yl)amino)-3-Oxoprop-1-en-1-yl)-N-Hydroxybenzamide]	–	did not show any alteration	No changes in β-amyloid plaque level	≥ 4.5
